Measured values as given in US9657015B2, “Substituted bicyclic dihydropyrimidinones and their use as inhibitors of neutrophil elastase activity” (Boehringer Ingelheim International GmbH, priority 2014, dated 2017).
Values after ≈ are worked out from the molar mass of the structure shown.

Experiments:
[1] = Drug transport across human Caco-2 cells; format: in vitro ADME; conditions: human, Caco-2 monolayers, pH 7.2, 37° C.; for Papp A→B at 10 µM: apical-to-basal, read-out: PEAB; for Papp B→A at 10 µM: basal-to-apical, read-out: PEBA
From the text: (§1) Assay for Determination of Drug Transport Across Human Caco-2 Cells
(§2) The assay provides information on the potential of a compound to pass the cell membrane, on the extent of oral absorption as well as on whether the compound is actively transported by uptake and/or efflux transporters. For the measurement of permeability across polarized, confluent human cancer colon carcinoma cells 2 (Caco-2) cell monolayers grown on permeable filter supports are used as the in vitro absorption model.
(§3) Apparent permeability coefficients (PE) of the compounds across the Caco-2 monolayers are measured (pH 7.2, 37° C.) in apical-to-basal (AB) (absorptive) and basal-to-apical (BA) (secretory) transport direction. AB permeability (PEAB) represents drug absorption from the intestine into the blood and BA permeability (PEBA) drug secretion from the blood back into the intestine via both passive permeability as well as active transport mechanisms mediated by efflux and uptake transporters that are expressed on the Caco-2 cells. The compounds are assigned to permeability/absorption classes by comparison of the AB permeabilities with the AB permeabilities of reference compounds with known in vitro permeability and oral absorption in the human. Identical or similar permeabilities in both transport directions indicate passive permeation, vectorial permeability points to additional active transport mechanisms. […] Active transport is concentration-dependently saturable.
(§4) Caco-2 cells (1-2*10^5 cells/cm^2 area) are seeded on filter inserts (Costar transwell polycarbonate or PET filters, 0.4 μm pore size) and cultured (DMEM) for 10 to 25 days. Compounds are dissolved in appropriate solvent (like DMSO, 1-20 mM stock solutions). Stock solutions are diluted with HTP-4 buffer (128.13 mM NaCl, 5.36 mM KCl, 1 mM MgSO4, 1.8 mM CaCl2, 4.17 mM NaHCO3, 1.19 mM Na2HPO4×7H2O, 0.41 mM NaH2PO4×H2O, 15 mM HEPES, 20 mM glucose, pH 7.2) to prepare the transport solutions (typically 10 μM compound, final DMSO<=0.5%). The transport solution (TL) is applied to the apical or basolateral donor side for measuring A-B or B-A permeability (3 filter replicates), respectively. The receiver side contains HTP-4 buffer supplemented with 2% BSA. Samples are collected at the start and end of experiment from the donor and at various time intervals for up to 2 hours also from the receiver side for concentration measurement by LC-MS/MS or scintillation counting. Sampled receiver volumes are replaced with fresh receiver solution.
(§5) The apparent permeability coefficients (PEAB and PEBA) of selected compounds in the Caco-2 drug transport assay described above are listed in Table 9.

[2] = molecular target: neutrophil elastase in human plasma (Homo sapiens (Human), UniProt P08246); experiment: Neutrophil elastase inhibitory activity in human plasma; format: biochemical; conditions: human plasma assay (zymosan-stimulated blood plasma), substrate 250 μM, pH 7.5
Experimental: Assay for the Determination of Neutrophil Elastase Inhibitory Activity in Human Plasma
Citrated blood from human healthy donors is mixed with zymosan suspension and incubated at room temperature. This leads to the stimulation of neutrophils and the release of neutrophil elastase into the plasma. The stimulated blood is centrifuged to generate the neutrophil elastase enriched plasma.
Preparation of Zymosan Working Solution:
Various concentrations of the neutrophil elastase inhibitor are incubated with plasma. […] A dose response curve is generated to calculate the EC50 of the inhibitor.

cytochrome P450 2C8 = cytochrome P450 2C8 (Homo sapiens (Human), UniProt P10632); experiment: Cytochrome P450 2C8 inhibition; format: in vitro ADME; conditions: human liver microsomes, Amodiaquine deethylation, 37° C.
From the text: Assay for Determination of Cytochrome P450 2C8 Inhibition

[3] = Aqueous solubility (Shaked Flask Method); format: physicochemical; conditions: aqueous buffer, thermodynamic from solid, pH 6.8 (McIlvaine buffer)
Experimental: Assay for Determination of Aqueous Solubility (“Shaked Flask Method”)
Saturated solutions are prepared in well plates by adding an appropriate volume of selected aqueous media (typically in the range of 0.25-1.5 ml) into each well which contains a known quantity of solid drug substance (typically in the range 0.5-5.0 mg). The wells are shaken or stirred for a predefined time period (typically in a range of 2-24 h) and then filtered using appropriate filter membranes (typically PTFE-filters with 0.45 μm pore size). Filter absorption is avoided by discarding the first few drops of filtrate. The amount of dissolved drug substance is determined by UV spectroscopy or by HPLC with UV-detection. In addition, the pH of the aqueous saturated solution is measured using a glass-electrode pH meter.

cytochrome P450 2C9 = cytochrome P450 2C9 (Homo sapiens (Human), UniProt P11712); experiment: Cytochrome P450 2C9 inhibition; format: in vitro ADME; conditions: human liver microsomes, Diclofenac hydroxylation, 37° C.
From the text: Assay for Determination of Cytochrome P450 2C9 Inhibition

[4] = Metabolic stability with human liver microsomes; format: in vitro ADME; conditions: pH 7.6; pooled human liver microsomes, 37° C., 1 μM test compound, 1 mg/ml microsomal protein, NADPH; read-out: t1/2 INVITRO
cytochrome P450 2C19 = cytochrome P450 2C19 (Homo sapiens (Human), UniProt P33261); experiment: Cytochrome P450 2C19 inhibition; format: in vitro ADME; conditions: human liver microsomes, (S)-Mephenytoin hydroxylation, 37° C.
From the text: Assay for Determination of Cytochrome P450 2C19 Inhibition

[5] = molecular target: Human neutrophil elastase (Homo sapiens (Human), UniProt P08246); experiment: Human Neutrophil Elastase Assay; format: biochemical; conditions: substrate MeOSuc-Ala-Ala-Pro-Val-AMC 250 μM, pH 7.5, room temperature
[6] = Aqueous solubility (High Throughput Method); format: physicochemical; conditions: McIlvaine buffer pH 6.8, 2.5% DMSO, 24 h shaking; for solubility at 24 h: McIlvaine buffer pH 6.8 with 2.5% DMSO, aqueous buffer, kinetic from dmso stock
Experimental: Assay for Determination of Aqueous Solubility (“High Throughput Method”)
Starting from a 10 mM DMSO stock solution, aliquots are diluted with acetonitrile/water (1/1) and McIlvaine buffer pH 6.8, respectively. After 24 h of shaking, the solutions or suspensions are filtered and analyzed by LC-UV. The amount dissolved in buffer is compared to the amount dissolved in the acetonitrile/water (1/1) solution. Solubility is measured from 0.001 to 0.125 mg/ml at a DMSO concentration of 2.5%. If more than 90% of the compound is dissolved in buffer, the value is marked with “>”.

[7] = Metabolic stability with human hepatocytes; format: in vitro ADME; conditions: human hepatocyte suspension (typically cryopreserved), 1 μM test compound, six hours, scaled with well stirred model
Experimental: Assay for the Determination of Metabolic Stability with Human Hepatocytes
The metabolic degradation of the test compound is assayed in a human hepatocyte suspension. Human hepatocytes (typically cryopreserved) are incubated in an appropriate buffer system (e.g. Dulbecco's modified eagle medium plus 3.5 μg glucagon/500 mL, 2.5 mg insulin/500 mL and 3.75 mg/500 mL hydrocortison) containing 5% species serum. Following a (typically) 30 min preincubation in an incubator (37° C., 10% CO2), 5 μl of test compound solution (80 μM; from 2 mM stock solution in DMSO diluted 1:25 with medium) are added into 395 μl hepatocyte suspension (cell density in the range 0.25-5*10^6 cells/mL, typically 1*10^6 cells/mL; final concentration of test compound 1 μM, final DMSO concentration 0.05%). The cells are incubated for six hours (incubator, orbital shaker) and samples (25 μl) are taken at 0, 0.5, 1, 2, 4 and 6 hours. Samples are transferred into acetonitrile and pelleted by centrifugation (5 min) The supernatant is transferred to a new 96-deepwell plate, evaporated under nitrogen and resuspended. The decline of parent compound is analyzed by LC-MS/MS.
The intrinsic clearance CL_[…] is calculated as follows: CL_[…]=Dose/AUC=(C0/CD)/(AUD+clast/k)*1′000/60 (C0: initial concentration in the incubation [μM], CD: cell density of vital cells [10^6 cells/mL], AUD: area under the data [μM*h], clast: concentration of last data point [μM], k: slope of the regression line for parent decline [h^−1])
The calculated in vitro hepatic intrinsic clearance can be scaled up to the intrinsic in vivo hepatic clearance and used to predict hepatic in vivo blood clearance (CL) by the use of a liver model (well stirred model): CL_[…]_INVIVO [ml/min/kg]=(CL_[…] [μL/min/10^6 cells]*hepatocellularity [10^6 cells/g liver]*liver factor [g/kg bodyweight])/1′000 CL [ml/min/kg]=CL_[…]_INVIVO [ml/min/kg]*hepatic blood flow [ml/min/kg]/(CL_[…]_INVIVO [ml/min/kg]+hepatic blood flow [ml/min/kg]) Qh [%]=CL [ml/min/kg]/hepatic blood flow [ml/min/kg]) (Hepatocellularity, human: 120*10^6 cells/g liver; liver factor, human: 25.7 g/kg bodyweight; blood flow, human: 21 ml/(min*kg))

Caco-2 cells = experiment: Drug transport across human Caco-2 cells; format: in vitro ADME; conditions: Caco-2 monolayers, pH 7.2, 37° C.; for PEAB: apical-to-basal; for PEBA: basal-to-apical
From the text: as §1, §2, §3, §4, §5

Chain of Human neutrophil elastase (P08246 30-247): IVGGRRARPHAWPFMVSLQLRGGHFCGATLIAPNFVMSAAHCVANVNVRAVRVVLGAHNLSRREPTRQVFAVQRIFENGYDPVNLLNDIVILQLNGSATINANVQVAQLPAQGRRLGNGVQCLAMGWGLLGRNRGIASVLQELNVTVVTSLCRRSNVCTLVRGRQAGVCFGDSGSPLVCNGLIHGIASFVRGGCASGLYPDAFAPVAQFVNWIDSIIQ
Chain of neutrophil elastase in human plasma (P08246 30-247): as above
Chain of cytochrome P450 2C19 (P33261 whole entry): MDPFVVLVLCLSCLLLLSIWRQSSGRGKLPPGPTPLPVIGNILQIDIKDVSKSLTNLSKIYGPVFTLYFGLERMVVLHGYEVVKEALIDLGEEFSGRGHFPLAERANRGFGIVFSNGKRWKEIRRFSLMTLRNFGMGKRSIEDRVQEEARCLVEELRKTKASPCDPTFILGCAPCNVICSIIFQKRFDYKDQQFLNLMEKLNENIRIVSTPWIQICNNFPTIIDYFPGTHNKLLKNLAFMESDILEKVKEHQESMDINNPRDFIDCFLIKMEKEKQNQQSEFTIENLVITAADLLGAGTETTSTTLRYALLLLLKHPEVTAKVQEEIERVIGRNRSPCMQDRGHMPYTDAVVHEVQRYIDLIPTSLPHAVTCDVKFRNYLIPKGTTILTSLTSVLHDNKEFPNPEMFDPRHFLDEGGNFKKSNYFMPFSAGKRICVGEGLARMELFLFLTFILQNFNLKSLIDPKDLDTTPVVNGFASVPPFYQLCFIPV
Chain of cytochrome P450 2C9 (P11712 whole entry): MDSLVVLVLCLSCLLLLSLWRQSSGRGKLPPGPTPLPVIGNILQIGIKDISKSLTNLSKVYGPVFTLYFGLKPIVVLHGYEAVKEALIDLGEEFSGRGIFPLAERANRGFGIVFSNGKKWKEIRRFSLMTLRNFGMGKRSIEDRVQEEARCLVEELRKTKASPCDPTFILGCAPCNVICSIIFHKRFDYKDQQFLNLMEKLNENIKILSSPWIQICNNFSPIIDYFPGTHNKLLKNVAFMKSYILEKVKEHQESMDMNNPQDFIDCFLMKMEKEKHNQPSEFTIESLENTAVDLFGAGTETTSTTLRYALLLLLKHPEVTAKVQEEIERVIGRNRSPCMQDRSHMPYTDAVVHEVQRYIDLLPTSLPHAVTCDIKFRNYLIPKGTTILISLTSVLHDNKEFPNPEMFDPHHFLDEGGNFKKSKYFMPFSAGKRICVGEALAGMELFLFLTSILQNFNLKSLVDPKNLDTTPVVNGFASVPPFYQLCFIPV
Chain of cytochrome P450 2C8 (P10632 whole entry): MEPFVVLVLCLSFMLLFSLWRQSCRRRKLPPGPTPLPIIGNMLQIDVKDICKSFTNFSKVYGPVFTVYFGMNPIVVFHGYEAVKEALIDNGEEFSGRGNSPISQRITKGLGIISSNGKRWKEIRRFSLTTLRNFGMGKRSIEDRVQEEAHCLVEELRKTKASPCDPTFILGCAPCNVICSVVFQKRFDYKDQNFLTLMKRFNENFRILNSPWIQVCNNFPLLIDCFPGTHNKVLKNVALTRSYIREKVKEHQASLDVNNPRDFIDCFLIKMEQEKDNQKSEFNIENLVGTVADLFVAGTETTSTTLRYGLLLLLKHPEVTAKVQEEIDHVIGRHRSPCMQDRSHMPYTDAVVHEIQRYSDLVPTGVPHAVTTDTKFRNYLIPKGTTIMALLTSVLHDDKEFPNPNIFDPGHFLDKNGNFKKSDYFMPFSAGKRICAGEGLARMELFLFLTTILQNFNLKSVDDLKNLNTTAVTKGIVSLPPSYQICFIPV

SMILES	Papp A→B at 10 µM [1]	Papp B→A at 10 µM [1]	IC50 [2]	IC50 (cytochrome P450 2C8)	solubility [3]	IC50 (cytochrome P450 2C9)	half-life at 1 μM [4]	IC50 (cytochrome P450 2C19)	IC50 [5]	solubility at 24 h [6]	CLhep predicted at 1 μM [7]	PEAB (Caco-2 cells)	PEBA (Caco-2 cells)	Aqueous solubility [6]
N#Cc1ccc([C@H]2NC(=O)N(c3cccc(C(F)(F)F)c3)C3=C2C(=O)NCC3)cc1 [Example 1A, (R)-4-(2,5-Dioxo-1-(3-(trifluoromethyl)phenyl)-1,2,3,4,5,6,7,8-octahydropyrido[4,3-d]-pyrimidin-4-yl)benzonitrile]	6.6 ×10⁻⁶ cm/s	44 ×10⁻⁶ cm/s	3.4 nM	> 50000 nM	≥ 10 µg/mL	> 50000 nM	> 2.17 h	> 50000 nM	3.1 nM	> 100 µg/mL	–	–	–	–
CN1C(=O)N(c2cccc(C(F)(F)F)c2)C2=C(C(=O)NCC2)C1c1ccc(C#N)cc1-c1cccnc1 (stereo not drawn) [Example 34, 4-{3-Methyl-2,5-dioxo-1-[3-(trifluoromethyl)phenyl]-1H,2H,3H,4H,5H,6H,7H,8H-pyrido[4,3-d]pyrimidin-4-yl}-3-(pyridin-3-yl)benzonitrile]	11 ×10⁻⁶ cm/s	79 ×10⁻⁶ cm/s	1.6 nM	> 50000 nM	–	> 50000 nM	–	> 50000 nM	< 1 nM	–	4 mL/min/kg	–	–	–
CN1C(=O)N(c2cccc(C(F)(F)F)c2)C2=C(C(=O)NCC2)[C@H]1c1ccc(C#N)cc1CO [Example 32A, 3-(Hydroxymethyl)-4-[(4R)-3-methyl-2,5-dioxo-1-[3-(trifluoromethyl)phenyl]-1H,2H,3H,4H,5H,6H,7H,8H-pyrido[4,3-d]pyrimidin-4-yl]benzonitrile]	6.9 ×10⁻⁶ cm/s	61 ×10⁻⁶ cm/s	< 1 nM	–	≥ 10 µg/mL	–	–	–	< 1 nM	19 µg/mL (≈ 41.6 µM)	3 mL/min/kg	–	–	–
CN1CCC2=C(C1=O)C(c1ccc(C#N)cc1-c1cccnc1)N(C)C(=O)N2c1cccc(C(F)(F)F)c1 (stereo not drawn) [Example 36.1]	–	–	1.8 nM	–	–	–	–	–	1.4 nM	–	–	26 ×10⁻⁶ cm/s	110 ×10⁻⁶ cm/s	70 µg/mL
CN1C(=O)N(c2cccc(C(F)(F)F)c2)C2=C(C(=O)NCC2)[C@H]1c1ccc(C#N)cc1-c1cnco1 [Example 30A, 4-[(4R)-3-Methyl-2,5-dioxo-1-[3-(trifluoromethyl)phenyl]-1H,2H,3H,4H,5H,6H,7H,8H-pyrido[4,3-d]pyrimidin-4-yl]-3-(1,3-oxazol-5-yl)-benzonitrile]	11 ×10⁻⁶ cm/s	85 ×10⁻⁶ cm/s	< 1 nM	–	≥ 10 µg/mL	–	> 2.17 h	–	–	60 µg/mL (≈ 122 µM)	3 mL/min/kg	–	–	–
CN1CCC2=C(C1=O)C(c1ccc(C#N)cc1-c1cnn(C)c1)N(C)C(=O)N2c1cccc(C(F)(F)F)c1 (stereo not drawn) [Example 36, 4-{3,6-Dimethyl-2,5-dioxo-1-[3-(trifluoromethyl)phenyl]4H,2H,3H,4H,5H,6H,7H,8H-pyrido[4,3-d]pyrimidin-4-yl}-3-(1-methyl-1H-pyrazol-4-yl)benzonitrile]	30 ×10⁻⁶ cm/s	83 ×10⁻⁶ cm/s	2.3 nM	–	≥ 10 µg/mL	–	> 2.17 h	–	< 1 nM	42 µg/mL (≈ 80.7 µM)	–	–	–	–
CN1CCC2=C(C1=O)C(c1ccc(C#N)cc1-c1ccncc1)N(C)C(=O)N2c1cccc(C(F)(F)F)c1 (stereo not drawn) [Example 36.2]	–	–	1.8 nM	–	–	–	–	–	1.3 nM	–	–	25 ×10⁻⁶ cm/s	150 ×10⁻⁶ cm/s	70 µg/mL
CN1CCC2=C(C1=O)C(c1ccc(C#N)cc1-c1cncnc1)N(C)C(=O)N2c1cccc(C(F)(F)F)c1 (stereo not drawn) [Example 36.3]	–	–	1.4 nM	–	–	–	–	–	1.1 nM	–	–	12 ×10⁻⁶ cm/s	110 ×10⁻⁶ cm/s	76 µg/mL
